Measured values taken from patent publication US20230301896A1, “COMPOSITION FOR PENETRATING SUGAR BASED DELIVERY SYSTEM” (Evonik Operations GmbH, priority 2015, published 2023).

Tests used:
Inner forearm = test: Reduction of irritation potential, 5 D Intravitaltomography (taum); format: in vivo, human; details: 0.3% of retinol occlusively applied onto inner forearm; taum at start point and 48 h after application
Source text: Reduction of Irritation can be detected by any known analytical test method which can be e.g. 5D IVT, ELISA, Patch Test. HET Cam Test using skin, skin models, cells. This effect depends on the active lipophilic ingredient encapsulated.
Data which measured in accordance with the method as described in “From Morphology To Biochemical State—Intravital Multiphoton Fluorescence Lifetime Imaging Of Inflamed Human Skin”, by Volker Huck et al. published in www.nature.com/scientificreports, 23 Mar. 2016; the disclosure of which is hereby incorporated by reference. Referring now to FIGS. 3 and 4, FIGS. 3 and 4 illustrate the Taum measurement. The delivery system of the invention can achieve Tau values of about 100 ps to about 3000 ps, about 300 ps to about 2500 ps and in some cases about 500 ps to about 1500 ps in the Stratum granulosum and Stratum spinosum.

[1] = HPLC determination of retinol (stabilization of active ingredient); format: physicochemical; details: UV 323 nm
Experimental: Active ingredients can be detected by any known analytical test method which can be e.g. HPLC, GG, ESR depending on the composition. This effect depends on the active lipophilic ingredient encapsulated.
Test Method used: HPLC Chromatography
Instrumentation: Liquid Chromatograph Agilent 1100 with autosampler, UV-detector
Column: Reprosil C-18-AQ; 5μ, 200*4 mm (Fa. Dr. Maisch) with precolumn: • Column Temp.: 20° C. • Mobile Phase: Acetonitrile/THF/Water (54/38/8 v/v/v) • Flow Rate: 1.0 ml/min • Gradient Program: Isocratic • Detection: UV-Detector; 323 nm • Injection Volume: 5 μl; Autosampler • Retention Time: 1.6 min
Reagents: • Acetonitrile (Roth, gradient grade) • THF (Roth, gradient grade) • 2-Propanol (Roth, gradient grade) • Water, twice-distilled • Retinol 50C (BASF, Cosmetic Quality, approx, 50%)—standard • (If not stated otherwise the reagents are used as purchased without any further purification)

CC1=C(/C=C/C(C)=C/C=C/C(C)=C/CO)C(C)(C)CCC1 [retinol, Retinol]
irritation potential (Inner forearm): significantly higher | stabilization of Retinol (HPLC) [1]: degrades
